Data: BindingDB's records for patent US11485738 (MIRATI THERAPEUTICS, INC., 2022)

Target: Histone-binding protein RBBP4/Polycomb protein EED/Polycomb protein SUZ12/Zinc finger protein AEBP2 (Human, UniProt O75530+Q09028+Q15022+Q6ZN18)
Assay: Enzymatic Activity Assay

Sequence of Histone-binding protein RBBP4/Polycomb protein EED/Polycomb protein SUZ12/Zinc finger protein AEBP2 (O75530 whole entry): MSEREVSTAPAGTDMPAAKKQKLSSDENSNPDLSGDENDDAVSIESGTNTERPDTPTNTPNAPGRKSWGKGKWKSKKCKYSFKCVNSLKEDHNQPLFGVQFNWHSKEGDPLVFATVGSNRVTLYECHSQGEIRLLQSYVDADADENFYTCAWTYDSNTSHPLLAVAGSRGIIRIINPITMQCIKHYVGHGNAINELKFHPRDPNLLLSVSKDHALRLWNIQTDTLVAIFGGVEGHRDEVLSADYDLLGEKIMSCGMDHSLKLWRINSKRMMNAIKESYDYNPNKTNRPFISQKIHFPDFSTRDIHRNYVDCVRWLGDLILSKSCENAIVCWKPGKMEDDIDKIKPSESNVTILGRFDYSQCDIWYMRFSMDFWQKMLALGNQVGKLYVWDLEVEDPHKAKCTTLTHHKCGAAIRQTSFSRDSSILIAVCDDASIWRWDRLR
Sequence of Histone-binding protein RBBP4/Polycomb protein EED/Polycomb protein SUZ12/Zinc finger protein AEBP2 (Q15022 whole entry): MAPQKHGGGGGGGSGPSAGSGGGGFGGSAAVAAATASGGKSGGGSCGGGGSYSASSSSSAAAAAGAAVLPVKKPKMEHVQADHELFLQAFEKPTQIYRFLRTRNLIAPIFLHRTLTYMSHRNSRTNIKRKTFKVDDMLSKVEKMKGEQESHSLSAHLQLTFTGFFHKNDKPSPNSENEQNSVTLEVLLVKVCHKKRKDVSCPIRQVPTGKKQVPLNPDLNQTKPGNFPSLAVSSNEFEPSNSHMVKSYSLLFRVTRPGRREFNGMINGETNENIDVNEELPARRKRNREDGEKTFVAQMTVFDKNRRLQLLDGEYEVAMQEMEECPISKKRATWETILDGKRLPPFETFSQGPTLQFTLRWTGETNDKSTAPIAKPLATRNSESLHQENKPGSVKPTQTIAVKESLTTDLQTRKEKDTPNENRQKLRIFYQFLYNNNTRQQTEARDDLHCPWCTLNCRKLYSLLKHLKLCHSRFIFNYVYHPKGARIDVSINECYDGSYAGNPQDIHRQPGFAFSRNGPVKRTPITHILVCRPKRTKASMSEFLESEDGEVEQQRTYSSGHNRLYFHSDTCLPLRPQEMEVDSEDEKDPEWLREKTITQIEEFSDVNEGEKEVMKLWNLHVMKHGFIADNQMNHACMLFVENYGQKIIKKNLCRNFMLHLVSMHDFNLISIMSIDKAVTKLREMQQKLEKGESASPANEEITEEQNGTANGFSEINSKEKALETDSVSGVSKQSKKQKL
Sequence of Histone-binding protein RBBP4/Polycomb protein EED/Polycomb protein SUZ12/Zinc finger protein AEBP2 (Q6ZN18 whole entry): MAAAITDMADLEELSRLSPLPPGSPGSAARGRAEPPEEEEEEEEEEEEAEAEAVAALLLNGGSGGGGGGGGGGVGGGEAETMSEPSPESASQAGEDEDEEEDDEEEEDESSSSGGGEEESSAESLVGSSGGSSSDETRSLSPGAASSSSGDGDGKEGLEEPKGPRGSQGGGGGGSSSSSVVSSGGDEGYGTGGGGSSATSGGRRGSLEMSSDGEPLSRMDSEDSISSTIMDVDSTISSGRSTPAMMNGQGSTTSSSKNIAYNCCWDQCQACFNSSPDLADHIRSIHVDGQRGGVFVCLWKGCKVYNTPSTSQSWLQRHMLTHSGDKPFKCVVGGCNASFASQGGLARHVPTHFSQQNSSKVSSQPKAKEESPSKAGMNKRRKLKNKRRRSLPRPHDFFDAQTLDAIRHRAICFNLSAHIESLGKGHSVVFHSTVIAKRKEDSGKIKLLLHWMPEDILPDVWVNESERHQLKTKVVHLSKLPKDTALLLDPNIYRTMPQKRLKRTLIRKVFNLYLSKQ
Sequence of Histone-binding protein RBBP4/Polycomb protein EED/Polycomb protein SUZ12/Zinc finger protein AEBP2 (Q09028 whole entry): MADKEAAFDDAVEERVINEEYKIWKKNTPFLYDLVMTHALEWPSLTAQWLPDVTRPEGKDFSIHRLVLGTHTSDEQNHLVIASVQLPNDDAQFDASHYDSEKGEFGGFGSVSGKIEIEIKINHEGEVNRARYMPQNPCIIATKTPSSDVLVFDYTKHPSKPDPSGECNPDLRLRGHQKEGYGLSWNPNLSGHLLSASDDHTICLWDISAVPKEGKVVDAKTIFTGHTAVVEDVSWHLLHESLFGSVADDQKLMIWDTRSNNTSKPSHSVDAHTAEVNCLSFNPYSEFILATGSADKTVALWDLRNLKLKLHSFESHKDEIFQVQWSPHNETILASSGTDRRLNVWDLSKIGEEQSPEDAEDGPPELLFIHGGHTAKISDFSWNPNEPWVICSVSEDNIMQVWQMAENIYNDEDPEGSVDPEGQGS

Row | IC50 | SMILES
1 | < 100 nM | Cc1nc(N2CCOCC2)ccc1-c1cnc(NCc2c(F)ccc3c2CCO3)n2cc(C#N)nc12 [US11485738, Example 56]
2 | < 100 nM | Cc1cc(S(C)(=O)=O)ccc1-c1cnc(NCc2c(F)ccc3c2CCO3)n2cc(C#N)nc12 [US11485738, Example 87]
